Some test systems named below: HCT-116; SF-539; CCRF-CEM; UO-31; HCC 2998; MCF7; A498; HCT-15; K562; BT-549; RXF 393; T47D; ACHN; CAKI-1; Hs-578T; NCI/ADR-RES; UACC-257; DU-145; HOP-92; PC-3.
Holding throughout (test): DTP human tumour cell line panel, 48 h

As usually defined, the GI50 is the concentration giving 50% growth inhibition.

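Dose response: 5 concentrations. Exposure: 48 h. Format: 96-well plates. Endpoint: linear interpolation; highest concentration if not reached. GI50 is the concentration that inhibits growth by half.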 Activity calls are given as the source filed them. Cut-off read from the data, not from the text of the source: active = GI50 up to about 1.1 µM and inactive = higher.

As for `C[C@H]1CC[C@]2(NC1)O[C@H]1C[C@H]3[C@@H]4CC[C@H]5C[C@@H](O[C@@H]6O[C@H](CO)[C@H](O[C@@H]7O[C@H](CO)[C@@H](O)[C@H](O[C@@H]8OC[C@@H](O)[C@H](O)[C@H]8O)[C@H]7O[C@@H]7O[C@H](CO)[C@@H](O)[C@H](O)[C@H]7O)[C@H](O)[C@H]6O)CC[C@]5(C)[C@H]4CC[C@]3(C)[C@H]1[C@@H]2C` [TOMATINE], the GI50 is 1700 nM (inactive) in the assay on HCT-116; 1560 nM (inactive) with SF-539; 2520 nM (inactive) with CCRF-CEM; 1420 nM (inactive) in the assay with UO-31; 993 nM (active) in the assay with HCC 2998; 2320 nM (inactive) in the assay on MCF7. In addition, the GI50 is 1870 nM (inactive) in the assay with A498; 2480 nM in the assay on HCT-15; 2740 nM (inactive) with K562; 2370 nM (inactive) with BT-549; 1800 nM (inactive) in the assay with RXF 393; 1970 nM (inactive) with T47D. The GI50 is 1710 nM (inactive) in the assay on ACHN; 753 nM (active) with CAKI-1; 1640 nM (inactive) with Hs-578T; 1900 nM (inactive) with NCI/ADR-RES; 2120 nM (inactive) in the assay on UACC-257; 1640 nM (inactive) in the assay on DU-145. The GI50 is 1990 nM (inactive) in the assay on HOP-92 and 719 nM (active) in the assay with PC-3.

(Values after ChEMBL document CHEMBL1201862, “PubChem BioAssay data set” (2004).)
